# Measurements as given in patent US20050287600A1, “Method for screening for agents preventing aggregation of potentially amyloidogenic proteins” (priority 2002, published 2005).
# Target: T1, human ataxin-3 (Q36) (Homo sapiens, UniProt P54252, INS305QQQQQQQQQQQQQQQQQQQQQQQQQQ)
# T1 construct: glutathione S-transferase (GST), PreScission Protease site (N, cleaved yes); made in house; host or cells: Escherichia coli BL21 codon plus RIL (plasmid pGEX6P-1)
# Test: Heat-induced amyloid fibre formation / aggregation screening assay
# Type: biochemical
# Details: 10 microM Congo red; ataxin-3 (Q36) about 0.1 mg/ml in 10 mM sodium phosphate, pH 7.0, incubated at growing temperatures
# Description: The screening procedure encompasses a) mixing the protein of interest with the compound to be assayed for its ability to prevent aggregation b) gradually increasing the temperature c) detecting the appearance of amyloid fibres by turbidimetric measurements, and/or by visual inspection of the mixture, and/or by determining its protein content before and after spinning down the aggregated protein. In the control sample, no compound is added so heating results in amyloid fibre formation and ensuing protein precipitation and clouding of the solution. In contrast, a compound capable of preventing aggregation also prevents or reduces clouding, along with protein precipitation on centrifugation. Protein concentration is typically about 0.1 mg per ml. Human ataxin-3 (Q36) was dissolved in 10 mM sodium phosphate, pH 7.0 at a final concentration of about 0.1 mg/ml and incubated at growing temperatures. […] Congo red is a well-known antiamyloidogenic compound. On incubating human ataxin-3 (Q36) in the presence of 10 microM Congo red and otherwise under the conditions depicted in example 3, protein aggregation phenomena observed in the absence of the dye were prevented.
# T1 sequence (P54252 with tags, fused parts or gaps with the stated changes): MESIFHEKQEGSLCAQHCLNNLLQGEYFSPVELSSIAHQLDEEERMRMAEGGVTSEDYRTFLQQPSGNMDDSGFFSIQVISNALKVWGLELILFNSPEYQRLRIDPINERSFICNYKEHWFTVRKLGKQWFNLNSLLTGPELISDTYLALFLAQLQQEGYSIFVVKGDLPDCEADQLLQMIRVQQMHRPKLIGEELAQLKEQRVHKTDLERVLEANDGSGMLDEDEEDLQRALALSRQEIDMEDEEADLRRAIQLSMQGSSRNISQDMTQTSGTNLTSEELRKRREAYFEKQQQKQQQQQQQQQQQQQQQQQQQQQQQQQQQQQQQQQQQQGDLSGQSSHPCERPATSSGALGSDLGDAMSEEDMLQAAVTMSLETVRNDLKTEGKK
structure (smiles),measurement,value
Nc1c(/N=N/c2ccc(-c3ccc(/N=N/c4cc(S(=O)(=O)O)c5ccccc5c4N)cc3)cc2)cc(S(=O)(=O)O)c2ccccc12 [Congo red],protein aggregation (amyloid fibre formation) on heating,prevented
